From the supplement of paper PMC10307832

compound: COC1=C(C=C(C=C1)C2=CC3=NC=CN3C(=N2)NC4=C(C=CC=N4)C(=O)N)OC [BAY61-3606] + O=C(c1cc(Cc2n[nH]c(=O)c3ccccc23)ccc1F)N1CCN(C(=O)C2CC2)CC1 [Olaparib] (partner 8 µM); test: relative viability (nuclei count vs DMSO), 5 days (fraction); higher = more cells survive; settings: first compound 0.02 µM
Method in brief: (§1)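 Nuclei were stained with Hoechst during a one-step fixation (final 0.05% Triton X-100, 1% formaldehyde, 1 ug/ml Hoechst) carried out 5 days after dosing, then counted on 4× images. The cells, lung cancer lines in 1536-well plates, had been dosed by pin tool the day after seeding with one drug alone or a fixed anchor-drug dose plus five library-drug doses (not always all listed) in √10 steps. Relative viability is the nuclei count in treated wells divided by that in vehicle wells, and each value is the median of duplicate plates.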

Cell Line	relative viability
NCI-H2342	0.352
RERF-LC-KJ	0.878
NCI-H1651	0.195
EBC-1	0.712
NCI-H1734	0.604
NCI-H2009	0.714
NCI-H596	0.74
SK-LU-1	0.599
SW 1573	0.553
LCLC-97TM1	0.498
NCI-H661	0.737
NCI-H2228	0.879
EMC-BAC-2	0.493
NCI-H2087	0.547
Calu-6	0.659
HCC-44	0.955
NCI-H1703	0.626
NCI-H727	0.586
LK-2	0.694

Cell Line	relative viability
NCI-H2126	0.92
NCI-H1648	0.766
NCI-H1793	0.988
H3255	0.545
COR-L23	0.343
COR-L 105	0.741
LC-2-ad	0.703
LU99A	0.261
ChaGo-K-1	0.442
IA-LM	1.02
A549	0.332
NCI-H522	0.768
SW 900	0.881
NCI-H520	0.359
NCI-H2023	0.515
NCI-H1299	1
CAL-12T	0.748
NCI-H1650	0.86
SK-MES-1	0.679

same assay, conditions: first compound 0.06325 µM

Cell Line	relative viability
NCI-H2342	0.406
RERF-LC-KJ	0.899
NCI-H1651	0.198
EBC-1	0.769
NCI-H1734	0.555
NCI-H2009	0.639
NCI-H596	0.75
SK-LU-1	0.458
SW 1573	0.455
LCLC-97TM1	0.365
NCI-H661	0.75
NCI-H2228	0.73
EMC-BAC-2	0.52
NCI-H2087	0.682
Calu-6	0.562
HCC-44	0.974
NCI-H1703	0.383
NCI-H727	0.643
LK-2	0.598

Cell Line	relative viability
NCI-H2126	0.985
NCI-H1648	0.982
NCI-H1793	0.814
H3255	0.486
COR-L23	0.356
COR-L 105	0.658
LC-2-ad	0.701
LU99A	0.253
ChaGo-K-1	0.452
IA-LM	0.864
A549	0.377
NCI-H522	0.618
NCI-H520	0.325
NCI-H2023	0.623
NCI-H1299	0.987
CAL-12T	0.773
NCI-H1650	0.924
SK-MES-1	0.786

same assay, conditions: first compound 0.2 µM

Cell Line	relative viability
NCI-H2342	0.399
RERF-LC-KJ	1.07
NCI-H1651	0.184
EBC-1	0.701
NCI-H1734	0.561
NCI-H2009	0.864
NCI-H596	0.722
SK-LU-1	0.646
SW 1573	0.424
LCLC-97TM1	0.462
NCI-H661	0.679
NCI-H2228	0.889
EMC-BAC-2	0.48
NCI-H2087	0.489
Calu-6	0.543
HCC-44	0.979
NCI-H1703	0.448
NCI-H727	0.752
LK-2	0.731

Cell Line	relative viability
NCI-H2126	0.865
NCI-H1648	0.736
NCI-H1793	1
H3255	0.511
COR-L23	0.411
COR-L 105	0.603
LC-2-ad	0.723
LU99A	0.241
ChaGo-K-1	0.368
IA-LM	0.816
A549	0.217
NCI-H522	0.644
NCI-H520	0.383
NCI-H2023	0.481
NCI-H1299	0.983
CAL-12T	0.735
NCI-H1650	0.768
SK-MES-1	0.606

same assay, conditions: first compound 0.6325 µM

Cell Line	relative viability
NCI-H2342	0.495
RERF-LC-KJ	0.872
NCI-H1651	0.182
EBC-1	0.748
NCI-H1734	0.541
NCI-H2009	0.713
NCI-H596	0.925
SK-LU-1	0.429
SW 1573	0.542
LCLC-97TM1	0.336
NCI-H661	0.762
NCI-H2228	0.693
EMC-BAC-2	0.493
NCI-H2087	0.54
Calu-6	0.551
HCC-44	0.901
NCI-H1703	0.541
NCI-H727	0.68
LK-2	0.846

Cell Line	relative viability
NCI-H2126	0.909
NCI-H1793	1.03
H3255	0.582
COR-L23	0.353
COR-L 105	0.787
LC-2-ad	0.717
LU99A	0.246
ChaGo-K-1	0.392
IA-LM	0.85
A549	0.312
NCI-H522	0.654
SW 900	0.856
NCI-H520	0.391
NCI-H2023	0.496
NCI-H1299	0.967
CAL-12T	0.758
NCI-H1650	0.806
SK-MES-1	0.688

same assay, conditions: first compound 2 µM

Cell Line	relative viability
NCI-H2342	0.432
RERF-LC-KJ	0.779
NCI-H1651	0.145
EBC-1	0.614
NCI-H1734	0.378
NCI-H2009	0.592
NCI-H596	0.544
SK-LU-1	0.355
SW 1573	0.259
LCLC-97TM1	0.389
NCI-H661	0.691
NCI-H2228	0.412
EMC-BAC-2	0.457
NCI-H2087	0.448
Calu-6	0.466
HCC-44	0.958
NCI-H1703	0.276
NCI-H727	0.627
LK-2	0.736

Cell Line	relative viability
NCI-H2126	0.833
NCI-H1648	0.765
NCI-H1793	0.718
H3255	0.516
COR-L23	0.269
COR-L 105	0.584
LC-2-ad	0.578
LU99A	0.243
ChaGo-K-1	0.357
IA-LM	0.68
A549	0.336
NCI-H522	0.53
SW 900	0.573
NCI-H520	0.274
NCI-H2023	0.257
NCI-H1299	0.936
CAL-12T	0.53
NCI-H1650	0.674
SK-MES-1	0.31

compound: COc1cccc2c1C(=O)c1c(O)c3c(c(O)c1C2=O)C[C@@](O)(C(=O)CO)C[C@@H]3O[C@H]1C[C@H](N)[C@H](O)[C@H](C)O1 [Doxorubicin] + CS(=O)(=O)N1CCN(Cc2cc3nc(-c4cccc5[nH]ncc45)nc(N4CCOCC4)c3s2)CC1 [Pictilisib] (partner 1 µM); test: as above; settings: first compound 0.001 µM
Method in brief: as §1

Cell Line	relative viability
RERF-LC-KJ	0.531
NCI-H1651	0.608
EBC-1	0.388
NCI-H1734	0.464
NCI-H2009	0.712
NCI-H596	0.353
SK-LU-1	0.571
SW 1573	0.512
LCLC-97TM1	0.145
NCI-H661	0.399
NCI-H2228	0.154
EMC-BAC-2	0.685
NCI-H2087	0.703
Calu-6	0.919
HCC-44	0.722
NCI-H1703	0.258
NCI-H727	0.334

Cell Line	relative viability
LK-2	0.498
NCI-H2126	0.494
H3255	0.481
COR-L23	0.928
COR-L 105	0.463
LC-2-ad	0.496
LU99A	0.349
ChaGo-K-1	0.971
IA-LM	0.287
A549	0.49
NCI-H520	0.264
NCI-H2023	0.169
NCI-H1299	0.799
CAL-12T	0.508
NCI-H1563	0.585
NCI-H1650	0.29
SK-MES-1	0.368

same assay, conditions: first compound 0.003162 µM

Cell Line	relative viability
RERF-LC-KJ	0.54
NCI-H1651	0.437
EBC-1	0.405
NCI-H1734	0.498
NCI-H2009	0.777
NCI-H596	0.436
SK-LU-1	0.562
SW 1573	0.46
LCLC-97TM1	0.24
NCI-H661	0.412
NCI-H2228	0.272
EMC-BAC-2	0.528
NCI-H2087	0.886
Calu-6	0.799
HCC-44	0.66
NCI-H1703	0.227
NCI-H727	0.342
LK-2	0.457

Cell Line	relative viability
NCI-H2126	0.523
NCI-H1793	0.365
H3255	0.482
COR-L23	1.04
COR-L 105	0.444
LC-2-ad	0.406
LU99A	0.323
ChaGo-K-1	0.506
IA-LM	0.341
A549	0.355
NCI-H520	0.326
NCI-H2023	0.248
NCI-H1299	0.762
CAL-12T	0.559
NCI-H1563	0.602
NCI-H1650	0.371
SK-MES-1	0.395

same assay, conditions: first compound 0.01 µM

Cell Line	relative viability
RERF-LC-KJ	0.595
NCI-H1651	0.412
EBC-1	0.295
NCI-H1734	0.389
NCI-H2009	0.719
NCI-H596	0.41
SK-LU-1	0.434
SW 1573	0.424
LCLC-97TM1	0.225
NCI-H661	0.378
NCI-H2228	0.295
EMC-BAC-2	0.538
NCI-H2087	0.841
Calu-6	0.516
HCC-44	0.58
NCI-H1703	0.189
NCI-H727	0.353
LK-2	0.534

Cell Line	relative viability
NCI-H2126	0.501
NCI-H1793	0.417
H3255	0.415
COR-L23	0.651
COR-L 105	0.355
LC-2-ad	0.417
LU99A	0.318
ChaGo-K-1	0.621
IA-LM	0.254
A549	0.201
NCI-H520	0.228
NCI-H2023	0.192
NCI-H1299	0.699
CAL-12T	0.402
NCI-H1563	0.62
NCI-H1650	0.241
SK-MES-1	0.362

same assay, conditions: first compound 0.03162 µM

Cell Line	relative viability
RERF-LC-KJ	0.501
NCI-H1651	0.138
EBC-1	0.195
NCI-H1734	0.321
NCI-H2009	0.535
NCI-H596	0.44
SK-LU-1	0.324
SW 1573	0.332
LCLC-97TM1	0.158
NCI-H661	0.452
NCI-H2228	0.153
EMC-BAC-2	0.477
NCI-H2087	0.495
Calu-6	0.263
HCC-44	0.531
NCI-H1703	0.177
NCI-H727	0.391
LK-2	0.498
